The values below come from publication PMC10096391, “Discovery of N,4-Di(1H-pyrazol-4-yl)pyrimidin-2-amine-Derived CDK2 Inhibitors as Potential Anticancer Agents: Design, Synthesis, and Evaluation” (Molecules, 2023).

For assay [1], the system named is A2780 cells. Briefly: Cell cycle analysis by flow cytometry, A2780. It is filed as cell-based. To be noted: A2780, 0.5 µM, 48 h. On the procedure: (§1) The effect of the compounds on cell cycle distribution was evaluated following a previously reported method. Briefly, six-well plates (Sigma-Aldrich, NSW, Australia) were seeded with about 1–2 × 10^5 cells/well in 2 mL growth medium, incubated at 37 °C and 5% CO2 overnight, and treated with various concentrations of the test compounds and incubated for 48 h. The wells were collected by trypsinization, transferred into fluorescence-activating cell sorting (FACS) tubes, washed with 1 × phosphate-buffered saline (1 × PBS) twice, fixed in 70% (v/v) ice-cold ethanol for 15 min, and centrifuged at 300× g for 5 min. The cell pellets were then collected, stained with 200 µL of the cell cycle solution (comprising 50.0 μg/mL PI, 0.1 mg/mL RNase A, and 0.05% Triton X-100), and incubated for 1.5 h at room temperature in the dark. Finally, the DNA content was determined by a flow cytometer (CytoFLEX) and analyzed by CytExpert 2.1 software (Beckman Coulter, Brea, CA, USA).
For orientation: Flow cytometry measures light scatter and fluorescence of single cells or particles in a stream.

The subject of assay [2] is OV90 cells. The assay is described as follows: Colony formation (crystal violet), OV90. It is filed as cell-based. To be noted: OV90, 10 days; 15 at 0.5 and 2 µM, CYC065 at 0.5 µM. The procedure: (§2) Briefly, ovarian cancer cells (i.e., A2780, OVCAR5, and OV90) seeded in six-well plates were adhered for 6 h and treated with 15. The medium that contained the compound was then changed every 72 h. Ten days after treatment, the cells were washed with PBS, fixed, and stained with crystal violet staining solution (0.05% crystal violet, 1% formaldehyde, 1% PBS, and 1% ethanol), and colonies were quantified using ImageJ software (National Institute of Health, Maryland, USA), with data presented as percentages of the control cells.

Assay [3] concerns OVCAR5 cells. The assay is described as follows: Colony formation (crystal violet), OVCAR5. It counts as cell-based. To be noted: OVCAR5, 10 days; 15 at 0.5 and 2 µM, CYC065 at 0.5 µM. The procedure: as §2
Assay [4] deals with A2780 cells. The assay is described as follows: Colony formation (crystal violet), A2780. It is filed as cell-based. Conditions: A2780, 10 days; 15 at 0.5 and 2 µM, CYC065 at 0.5 µM. On the procedure:
as §2

The test system of assay [5] is OVCAR5 cells. The assay is described as follows: Annexin V/PI apoptosis assay, OVCAR5. It is filed as cell-based. To be noted: OVCAR5, 0.5 µM, 48 h. The procedure:
(§3) Annexin V-fluorescein isothiocyanate (FITC) apoptosis detection kit I (consisting of a ten-time stock solution of binding buffer, FITC–annexin V, and PI staining solution) was used to determine the effect of the compounds on cancer cell survival as previously reported. Briefly, six-well plates (Sigma-Aldrich, NSW, Australia) were seeded with about 1–2 × 10^5 cells/well in 2 mL growth medium, incubated at 37 °C and 5% CO2 overnight, treated with various concentrations of the test compounds, and incubated for 48 h. The wells were collected by trypsinization, transferred into FACS tubes, washed twice with 1 × PBS, and centrifuged at 300× g for 5 min. The pellets were then suspended in 100 µL of 1 × binding buffer and incubated in the dark with 3 µL of PI and 3 µL of FITC-conjugated annexin V solutions for 15 min. Finally, 200 µL of binding buffer was added to each sample and analyzed by the CytoFLEX cytometer. The extent of apoptotic cell death was quantified as the sum of the percentages of early apoptotic cells (annexin V-positive and PI-negative) and late apoptotic cells (both annexin–V- and PI-positive) and presented graphically as a contour diagram relative to the untreated control.

Assay [6] relates to OVCAR5 cells. The assay is described as follows: Cell cycle analysis by flow cytometry, OVCAR5. To be noted: OVCAR5, 0.5 µM, 48 h. It is filed as cell-based. On the procedure:
as §1

In assay [7] the test system is A2780 cells. Briefly: Annexin V/PI apoptosis assay, A2780. Conditions: A2780, 0.5 µM, 48 h. It is filed as cell-based. On the procedure:
as §3

Assay [8] has as its target CDK9/cyclin T1 (CDK9T1) (Homo sapiens, UniProt P50750). Details: method as in PMID 36706608. Conditions: previously reported data for 1; cited from earlier work.
The test system of assay [9] is A2780 ovarian cancer cells. Details: method as in PMID 36706608. Conditions: previously reported data for 1; cited from earlier work.
The target of assay [10] is CDK2/cyclin E (CDK2E) (Homo sapiens, UniProt P24941). More on the design: method as in PMID 36706608. To be noted: previously reported data for 1; cited from earlier work.
For assay [11], the target named is CDK5/p25 (CDK5p25) (Homo sapiens, UniProt Q00535). More on the design: method as in PMID 36706608. To be noted: previously reported data for 1; cited from earlier work.
CDK5/p25 (CDK5p25), sequence (Q00535 whole entry): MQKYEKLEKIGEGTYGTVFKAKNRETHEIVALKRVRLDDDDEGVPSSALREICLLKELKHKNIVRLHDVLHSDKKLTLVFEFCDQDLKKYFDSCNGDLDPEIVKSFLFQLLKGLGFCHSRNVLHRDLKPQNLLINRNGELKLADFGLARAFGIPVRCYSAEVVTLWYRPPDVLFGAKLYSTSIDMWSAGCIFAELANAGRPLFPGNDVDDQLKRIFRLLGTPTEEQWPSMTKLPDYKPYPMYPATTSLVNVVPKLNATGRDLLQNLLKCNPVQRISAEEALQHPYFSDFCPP
CDK5/p25 (CDK5p25), sequence (Q15078 99-307 partner limits assumed): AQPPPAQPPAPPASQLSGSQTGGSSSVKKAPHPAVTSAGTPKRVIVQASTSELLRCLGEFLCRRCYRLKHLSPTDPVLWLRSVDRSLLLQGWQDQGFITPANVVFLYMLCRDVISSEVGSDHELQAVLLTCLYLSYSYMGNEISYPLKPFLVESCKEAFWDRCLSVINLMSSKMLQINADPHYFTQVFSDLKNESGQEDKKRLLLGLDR
The target in assay [12] is CDK1/cyclin B (CDK1B) (Homo sapiens, UniProt P06493). Details: method as in PMID 36706608. To be noted: previously reported data for 1; cited from earlier work.
CDK1/cyclin B (CDK1B), sequence (P06493 whole entry): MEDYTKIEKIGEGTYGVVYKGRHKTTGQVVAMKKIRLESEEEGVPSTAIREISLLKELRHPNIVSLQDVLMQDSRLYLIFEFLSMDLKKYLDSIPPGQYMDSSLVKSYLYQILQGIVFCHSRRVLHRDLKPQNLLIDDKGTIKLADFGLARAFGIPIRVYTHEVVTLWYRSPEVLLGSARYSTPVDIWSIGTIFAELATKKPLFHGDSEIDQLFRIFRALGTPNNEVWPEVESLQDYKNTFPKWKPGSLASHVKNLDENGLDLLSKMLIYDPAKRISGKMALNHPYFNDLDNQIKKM
CDK1/cyclin B (CDK1B), sequence (P14635 whole entry partner): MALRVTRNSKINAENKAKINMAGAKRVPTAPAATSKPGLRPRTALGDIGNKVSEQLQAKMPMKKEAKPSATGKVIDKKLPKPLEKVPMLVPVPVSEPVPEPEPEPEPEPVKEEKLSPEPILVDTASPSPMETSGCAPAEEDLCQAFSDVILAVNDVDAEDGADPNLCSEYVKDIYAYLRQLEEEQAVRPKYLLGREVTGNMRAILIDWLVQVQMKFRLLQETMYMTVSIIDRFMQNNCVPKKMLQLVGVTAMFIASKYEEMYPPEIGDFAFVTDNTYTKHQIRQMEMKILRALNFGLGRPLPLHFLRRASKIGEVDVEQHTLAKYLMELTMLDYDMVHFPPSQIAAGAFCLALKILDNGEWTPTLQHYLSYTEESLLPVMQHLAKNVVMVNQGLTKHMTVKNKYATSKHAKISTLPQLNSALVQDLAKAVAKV

Each structure is given as a SMILES string.

CDK9/cyclin T1 (CDK9T1), sequence (P50750 whole entry): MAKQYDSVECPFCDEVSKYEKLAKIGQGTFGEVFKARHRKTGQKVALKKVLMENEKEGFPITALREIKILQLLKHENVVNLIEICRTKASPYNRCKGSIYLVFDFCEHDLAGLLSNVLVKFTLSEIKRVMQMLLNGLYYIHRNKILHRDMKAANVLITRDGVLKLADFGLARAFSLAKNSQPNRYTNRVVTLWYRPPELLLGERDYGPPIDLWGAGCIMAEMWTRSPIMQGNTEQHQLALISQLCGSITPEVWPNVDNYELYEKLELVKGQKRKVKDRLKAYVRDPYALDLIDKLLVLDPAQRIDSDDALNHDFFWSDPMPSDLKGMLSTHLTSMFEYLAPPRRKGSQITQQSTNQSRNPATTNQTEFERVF
CDK9/cyclin T1 (CDK9T1), sequence (O60563 whole entry partner): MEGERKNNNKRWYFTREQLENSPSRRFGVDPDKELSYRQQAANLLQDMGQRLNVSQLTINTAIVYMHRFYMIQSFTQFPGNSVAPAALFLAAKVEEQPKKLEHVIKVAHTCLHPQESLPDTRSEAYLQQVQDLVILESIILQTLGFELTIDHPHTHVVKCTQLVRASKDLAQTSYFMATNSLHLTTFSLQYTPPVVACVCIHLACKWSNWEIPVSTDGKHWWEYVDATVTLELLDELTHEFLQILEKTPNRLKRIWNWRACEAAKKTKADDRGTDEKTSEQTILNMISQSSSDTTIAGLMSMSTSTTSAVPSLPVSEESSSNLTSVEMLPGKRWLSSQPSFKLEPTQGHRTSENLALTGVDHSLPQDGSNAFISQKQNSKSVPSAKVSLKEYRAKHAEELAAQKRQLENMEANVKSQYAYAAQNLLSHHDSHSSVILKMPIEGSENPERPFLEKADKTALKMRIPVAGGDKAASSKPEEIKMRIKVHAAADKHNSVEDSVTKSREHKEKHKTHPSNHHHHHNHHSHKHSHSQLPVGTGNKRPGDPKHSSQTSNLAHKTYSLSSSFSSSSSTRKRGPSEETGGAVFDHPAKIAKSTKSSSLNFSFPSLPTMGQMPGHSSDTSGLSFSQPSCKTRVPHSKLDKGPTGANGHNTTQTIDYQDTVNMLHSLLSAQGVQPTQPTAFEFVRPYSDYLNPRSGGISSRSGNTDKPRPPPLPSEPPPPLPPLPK

In [1], `CC[C@H](Nc1nc(NCc2cnc(C)cc2C)c2ncn(C(C)C)c2n1)[C@@H](C)O` [CYC065, reference compound] came in with a S-phase cells of 24%. The molecule further displayed a Sub-G1 cells in assay [1] of 27%. For the same molecule, the “effect on colony formation” value is reported as “reduced” in assay [2], “lowest effect” in assay [3] and “reduced” in [4]. Also, the viability at 0.5 µM in assay [5] (Homo sapiens, OVCAR-5, read-out: Q1-LL, viable cells) came to 81.9%; in assay [7] (Homo sapiens, read-out: Q1-LL, viable cells), 26%. Also, the “apoptosis (annexin V positive, early + late)” value was 16% in assay [5] and 73% in assay [7]. Further, in assay [6], the “increment in the subpopulation of G2/M cells compared to the vehicle control” value is reported as 12%.
Take `Cn1cc(-c2nc(Nc3cccc(S(N)(=O)=O)c3)ncc2F)cn1` [Compound 1, 3-((5-fluoro-4-(1-methyl-1H-pyrazol-4-yl)pyrimidin-2-yl)amino)benzenesulfonamide]: the Ki (as a rule, the equilibrium dissociation constant of an inhibitor or competing ligand from its target) in assay [8] is 26 nM; in assay [10], 23 nM; in [11], 77 nM; in assay [12], 5 nM. In addition, the concentration for 50% growth inhibition (GI50) (commonly the concentration at which growth is held to half of that of the control) in [9] was 18 nM.
